Experimental data from patent publication US6552014B2, “Methods of inhibiting platelet activation with selective serotonin reuptake inhibitors” (HeartDrug Research, L.L.C., priority 1999, dated 2003).

Key:
[1] = test system: CPIa-IIa; assay: Flow cytometry of platelet antigen expression, platelet rich plasma; assay type: cell-based, human; details: PRP; healthy volunteers; desmethylsertraline 64.2 ng/ml
[2] = test system: GP IIIa; assay: as above; assay type: cell-based, human; details: PRP, desmethylsertraline 64.2 ng/ml
[3] = test system: CD9; assay: as above; assay type: cell-based, human; details: PRP; healthy volunteers; desmethylsertraline 64.2 ng/ml
[4] = test system: PECAM-1; assay: as above; assay type: cell-based, human; details: PRP, desmethylsertraline 64.2 ng/ml
[5] = test system: P-selectin; assay: Whole blood flow cytometry; assay type: cell-based, human; details: for P-Selectin (% +), % of cell positivity: Whole Blood
Description: For ex vivo assessment of the SSRIs effect on a PAM, a level of a PAM can be assessed by flow cytometry by first obtaining a sample that comprises platelets and then contacting the sample with a platelet activation agonist, such as phorbol myristate acetate (PMA), ADP (adenosine diphosphate), thrombin, collagen, and/or TRAP (thrombin receptor activating peptide), under conditions suitable for activation of platelets in the sample. The sample is in contact with the agonist preferably for a period of time effective to maximally activate the platelets. […] Then one contacts or stains the samples with a composition that comprises an anti-PAM antibody e.g., having a fluorescent label, preferably in an amount in excess of that required to bind the PAM expressed on the platelets, under conditions suitable for the formation of labeled complexes between the anti-PAM antibody and activated platelets. Then the formation of the complex in the sample is determined (detected or measured).
Four cc of blood was collected in a tube, containing 2 cc of acid-citrate-dextrose (ACD) (7.3 g citric acid, 22.0 g sodium citrate×2H2O and 24.5 glucose in a total amount of 1000 mL distilled water) and mixed well. The buffer, TBS (10 mM Tris, 0.15 M NaCl, pH 7.4) and the following fluorescein isothiocyanate (FITC) conjugated monoclonal antibodies (PharMingen, San Diego, Calif. USA, and DAKO, Calif., USA) were removed from a refrigerator and allowed to warm at room temperature (RT): CD41 (IIb/IIIa), CD31 (PECAM-1), CD62p (P-selectin), CD51/61 (Vitronectin receptor). Six amber tubes (1.25 ml) were obtained and marked. One Eppendorf tube (1.5 ml) was labeled with “Dill WB”, Patient ID #, Initial and Date. The amber tubes and Eppendorf tube were placed in the rack. […] of TBS buffer was pipetted to the labeled Eppendorf tube. The patient's whole blood tube was inverted gently twice to mix. 50 μl of whole blood was pipetted to the “Dill WB” labeled Eppendorf tube. The Eppendorf tube was capped and the diluted whole blood was mixed by inverting the Eppendorf tube gently two times 50 μl of diluted whole blood was pipetted to each amber tube. 5 μl of appropriate antibody was pipetted to the bottom of the corresponding amber tube. The tubes were covered with aluminum foil and incubated at 4° C. for 30 minutes. After incubation, 400 μl of 2% buffered paraformaldehyde was added. To prepare 2% Paraformaldehyde:Dilute 1 part 10% paraformaldehyde with 4 parts TBS. This solution was stored at 4° C. for up to one week. The amber tubes were closed with a lid tightly and stored in a refrigerator at 4° C. until the flow cytometric analysis. The samples are analyzed on a Becton Dickinson FACScan flow cytometer. The instrument is set up to measure forward light scatter (FSC), and FITC fluorescence. All parameters are collected using four decade logarithmic amplification.
The data in table 1 was obtained using the methods described herein, and in particular, in Examples 1 and 2. The levels of various PAMs were assess from samples of human volunteers. […] Baseline levels of the PAMs were also obtained (without exposure to sertraline or NDMS).

[6] = test system: platelets; assay: Platelet aggregation in whole blood (ADP or collagen); assay type: cell-based, human
Protocol: Trisodium citrate (3.8%) and whole blood is immediately mixed in a 1:9 ratio, and then centrifuged at 1200 g for 2.5 minutes, to obtain platelet-rich plasma (PRP), which is kept at room temperature for use within 1 hour for platelet aggregation studies. Platelet count is determined in each PRP sample with a Coulter Counter ZM (Coulter Co., Hialeah, Fla.). Platelet numbers are adjusted to 3.50×10^8/ml for aggregation with homologous platelet-poor plasma. PRP and whole blood aggregation tests are performed simultaneously. Whole blood is diluted 1.1 with the 0.5 ml PBS, and then swirled gently to mix . The cuvette with the stirring bar is placed in the incubation well and allowed to warm to 37° C. for 5 minutes. Then the sample are transferred to the assay well. An electrode is placed in the sample cuvette. Platelet aggregation is stimulated with 5 μM ADP, 1 μg/ml collagen, and 0.75 mM arachidonic acid. All agonists are obtained from Chronolog Corporation (Hawertown, Pa.). […] Platelet aggregability are expressed as the percentage of light transmittance change from baseline using platelet-poor plasma as a reference at the end of recording time for plasma samples, or as a change in electrical impedance for whole blood samples. Aggregation curves are recorded for 4 minutes and analyzed according to internationally established standards using Aggrolinkg® software.

[7] = test system: PECAM-1; assay: Ex vivo soluble PECAM-1 plasma levels in patients; design: species or system human; details: patients with depression following myocardial infarction; after 16 weeks of the sertraline/placebo therapy
Protocol: Soluble P-selectin (Centocor, Inc., Malvern, Pa. USA); and PECAM-1 (Bender MedSystems, Vienna, Austria) are measured Plasma samples will be extracted with ethanol and then stored at −80° C. before final determination. Enzyme-linked immunosorbent assays will be used according standard techniques and as described herein.

[8] = in vivo; cited from earlier work
[9] = single doses in volunteers; cited from earlier work
[10] = post-angioplasty patient on aspirin

N[C@H]1CC[C@@H](c2ccc(Cl)c(Cl)c2)c2ccccc21 [Desmethyl sertraline, N-desmethylsertraline]
CPIa-IIa (mean) log fluorescence intensity [1]: 42
CPIa-IIa (peak) log fluorescence intensity [1]: 40
GP IIIa (peak) log fluorescence intensity ([2]; healthy volunteers): 1144
GP IIIa (mean) log fluorescence intensity [2, 10]: 1247
CD9 (mean) log fluorescence intensity [3]: 859
PECAM-1 (peak) log fluorescence intensity ([4]; healthy volunteers): 91
PECAM-1 (mean) log fluorescence intensity [4, 10]: 105
PECAM-1 (peak) log fluorescence intensity [4, 10]: 84
P-Selectin (% +), % of cell positivity ([5]; healthy volunteers, desmethylsertraline 31.1 ng/ml): 1.2%
P-Selectin (% +), % of cell positivity ([5]; healthy volunteers, desmethylsertraline 64.2 ng/ml): 3.3%
P-Selectin (% +), % of cell positivity ([5]; healthy volunteers, desmethylsertraline 143 ng/ml): 0.4%
P-Selectin (% +), % of cell positivity ([5]; post-angioplasty patient on aspirin, desmethylsertraline 31.1 ng/ml): 10.68%
P-Selectin (% +), % of cell positivity ([5]; post-angioplasty patient on aspirin, desmethylsertraline 64.2 ng/ml): 8.04%
P-Selectin (% +), % of cell positivity ([5]; post-angioplasty patient on aspirin, desmethylsertraline 143 ng/ml): 9.92%
P-selectin expression (FIG. 4), in words ([5]; whole blood, post-angioplasty patient, increasing concentrations): striking decreases in expression

CN[C@H]1CC[C@@H](c2ccc(Cl)c(Cl)c2)c2ccccc21 [sertraline]
ADP-, and collagen-induced platelet aggregation in whole blood (in vitro), in words ([6]; healthy controls and patients with coronary artery disease, including those on aspirin): Dose-dependent inhibition
percent of platelet aggregation (FIGS. 2 and 3), in words ([6]; whole blood, healthy volunteer, induced with ADP or collagen, sertraline 18.1, 44.7 or 85.3 ng/ml): decreases with increasing amounts of sertraline
ex vivo PECAM-1 plasma levels, in words [7]: Mild, but consistent reduction
half life [8]: 25 to 32 h
dose at which sedative potential is evident [9]: ≥ 200 mg/daily
